Assays:
[1] = target: T1, Sodium-dependent dopamine transporter (Rattus norvegicus, UniProt P23977); experiment: Inhibition of [3H]WIN-35428 binding to dopamine transporter of rat striatum; format: tissue-based
[2] = target: Monoamine transporters; Norepininephrine & dopamine (Rattus norvegicus) (UniProt P23977+Q9WTR4); experiment: Relative binding affinity for norepinephrine and dopamine transporter, ratio of IC50; format: protein assay
[3] = target: Norepinephrine transporter (Rattus norvegicus, UniProt Q9WTR4); experiment: Inhibition of [3H]nisoxetine binding to norepinephrine transporter of rat cerebral cortex; format: tissue-based
[4] = target: Monoamine transporters; serotonin & dopamine (Rattus norvegicus) (UniProt P31652+P23977); experiment: Relative binding affinity for serotonin and dopamine transporters, ratio of IC50; format: protein assay
[5] = target: T1, Sodium-dependent dopamine transporter; experiment: Concentration required to inhibit [3H]DA (dopamine) uptake into rat striatal synaptosomes; format: functional, subcellular, Brain
[6] = target: Sodium-dependent dopamine transporter (Rattus norvegicus) (UniProt P23977); experiment: Ratio of IC50 for [3H]DA uptake to and dopamine transporter binding
[7] = target: Sodium-dependent serotonin transporter (Rattus norvegicus, UniProt P31652); experiment: Inhibition of [3H]citalopram binding to serotonin transporter of rat cerebral cortex; format: tissue-based
Sodium-dependent serotonin transporter, sequence (P31652 whole entry): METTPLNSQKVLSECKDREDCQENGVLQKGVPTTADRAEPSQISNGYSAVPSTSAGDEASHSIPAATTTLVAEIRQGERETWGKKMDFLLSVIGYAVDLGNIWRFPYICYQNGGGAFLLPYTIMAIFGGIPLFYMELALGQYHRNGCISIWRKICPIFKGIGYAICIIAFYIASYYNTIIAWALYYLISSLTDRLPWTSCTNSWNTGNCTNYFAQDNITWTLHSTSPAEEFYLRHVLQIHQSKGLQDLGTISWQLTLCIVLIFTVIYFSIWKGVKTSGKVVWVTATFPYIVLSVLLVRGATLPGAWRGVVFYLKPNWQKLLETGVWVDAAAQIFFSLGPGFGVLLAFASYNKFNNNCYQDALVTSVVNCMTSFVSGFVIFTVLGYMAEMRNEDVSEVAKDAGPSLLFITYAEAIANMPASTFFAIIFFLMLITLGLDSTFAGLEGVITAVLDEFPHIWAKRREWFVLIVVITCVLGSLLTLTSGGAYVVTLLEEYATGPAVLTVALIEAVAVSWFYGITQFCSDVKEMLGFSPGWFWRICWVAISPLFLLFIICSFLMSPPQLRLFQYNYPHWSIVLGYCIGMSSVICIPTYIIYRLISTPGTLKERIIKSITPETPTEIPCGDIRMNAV

Norepinephrine transporter, sequence (Q9WTR4 whole entry): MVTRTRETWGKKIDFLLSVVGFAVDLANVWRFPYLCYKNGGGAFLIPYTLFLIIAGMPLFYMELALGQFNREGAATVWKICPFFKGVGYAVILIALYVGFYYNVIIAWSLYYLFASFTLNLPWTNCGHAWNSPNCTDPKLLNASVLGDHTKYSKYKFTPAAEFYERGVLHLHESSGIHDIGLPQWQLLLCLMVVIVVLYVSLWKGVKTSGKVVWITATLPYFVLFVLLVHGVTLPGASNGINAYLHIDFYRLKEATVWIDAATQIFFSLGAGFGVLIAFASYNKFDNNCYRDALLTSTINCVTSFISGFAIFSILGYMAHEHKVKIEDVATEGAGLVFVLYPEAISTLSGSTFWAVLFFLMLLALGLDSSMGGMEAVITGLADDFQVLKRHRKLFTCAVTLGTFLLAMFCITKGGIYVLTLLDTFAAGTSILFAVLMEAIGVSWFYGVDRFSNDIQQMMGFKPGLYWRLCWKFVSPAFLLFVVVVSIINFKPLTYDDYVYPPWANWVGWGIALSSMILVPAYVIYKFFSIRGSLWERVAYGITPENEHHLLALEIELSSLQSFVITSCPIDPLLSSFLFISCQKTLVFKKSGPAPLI
Sodium-dependent dopamine transporter (Rattus norvegicus), sequence (P23977 whole entry): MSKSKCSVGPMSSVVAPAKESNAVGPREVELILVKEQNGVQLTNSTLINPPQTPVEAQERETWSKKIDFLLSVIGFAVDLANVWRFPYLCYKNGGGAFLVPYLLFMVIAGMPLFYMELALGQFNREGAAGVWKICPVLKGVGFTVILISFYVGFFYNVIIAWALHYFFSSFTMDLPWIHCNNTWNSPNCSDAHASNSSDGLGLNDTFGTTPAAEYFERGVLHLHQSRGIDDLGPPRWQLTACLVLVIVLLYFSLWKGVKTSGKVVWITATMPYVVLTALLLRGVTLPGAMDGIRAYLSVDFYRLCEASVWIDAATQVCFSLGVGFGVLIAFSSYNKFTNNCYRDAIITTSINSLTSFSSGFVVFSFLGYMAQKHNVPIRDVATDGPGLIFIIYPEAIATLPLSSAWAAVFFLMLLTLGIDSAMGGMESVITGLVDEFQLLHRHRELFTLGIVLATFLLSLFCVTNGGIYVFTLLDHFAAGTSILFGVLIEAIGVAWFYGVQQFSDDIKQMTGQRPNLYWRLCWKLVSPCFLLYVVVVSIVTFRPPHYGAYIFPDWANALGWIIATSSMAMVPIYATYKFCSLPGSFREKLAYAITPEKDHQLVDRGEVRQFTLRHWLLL
Monoamine transporters; serotonin & dopamine (Rattus norvegicus), sequence (P23977 whole entry, looked up): as the sequence (P23977 whole entry) above
Monoamine transporters; serotonin & dopamine (Rattus norvegicus), sequence (P31652 whole entry, looked up): as the sequence (P31652 whole entry) above
T1 sequence (P23977 whole entry): as the sequence (P23977 whole entry) above

| Compound | IC50 [1] | Selectivity [2] | IC50 [3] | Selectivity [4] | IC50 [5] | Selectivity [6] | IC50 [7] |
| --- | --- | --- | --- | --- | --- | --- | --- |
| COc1ccc(CNC2CCC(C(c3ccccc3)c3ccccc3)NC2)cc1 (stereo unspecified) | 47.5 nM | 23 | 1110 nM | 22 | 40.5 nM | 0.85 | 1040 nM |
| Fc1ccc(CNC2CCC(C(c3ccccc3)c3ccccc3)NC2)cc1 (stereo unspecified) | 33.8 nM | – | 1420 nM | – | 53.8 nM | – | – |
| Fc1ccc(CCN2CCN3CC2CCC3C(c2ccccc2)c2ccccc2)cc1 (stereo unspecified) | 565 nM | > 18 | > 10000 nM | 4 | – | – | 2550 nM |
| N#Cc1ccc(CNC2CCC(C(c3ccccc3)c3ccccc3)NC2)cc1 (stereo unspecified) | 11.2 nM | 148 | 1670 nM | 38 | 9.1 nM | 0.8 | 434 nM |
| CN1CCN2CC1CCC2C(c1ccccc1)c1ccccc1 (stereo unspecified) | 4710 nM | 13 | 60100 nM | 33 | – | – | 157000 nM |
| COc1ccc(CN2CCN3C[C@H]2CC[C@@H]3C(c2ccccc2)c2ccccc2)cc1 | 329 nM | > 30 | > 10000 nM | 20 | 269 nM | 0.8 | 6630 nM |
| CN(Cc1ccc(F)cc1)C1CCC(C(c2ccccc2)c2ccccc2)N(C)C1 (stereo unspecified) | 225 nM | 31 | 7000 nM | 10 | – | – | 2360 nM |
| Fc1ccc(CNC2CCC(C(c3ccccc3)c3ccccc3)N(Cc3ccc(F)cc3)C2)cc1 (stereo unspecified) | 1240 nM | 12 | 12600 nM | 10 | – | – | 18900 nM |
| O=S(=O)(Nc1ccc(CN2CCN3CC2CCC3C(c2ccccc2)c2ccccc2)cc1)c1ccc(Cl)cc1 (stereo unspecified) | 371 nM | 9 | 3480 nM | 11 | – | – | 4130 nM |
| COc1ccc(CN2CCN3C[C@@H]2CC[C@H]3C(c2ccccc2)c2ccccc2)cc1 | 22.5 nM | > 444 | > 10000 nM | 384 | 18.4 nM | 0.8 | 8650 nM |

— ChEMBL document CHEMBL1137217, “Further structurally constrained analogues of cis-(6-benzhydrylpiperidin-3-yl)benzylamine with elucidation of bioactive conformation: discovery of 1,4-diazabicyclo[3.3.1]nonane derivatives and evaluation of their biological properties for the monoamine transporters” (J Med Chem, 2004)
